In US9993494B2, “Compositions and methods for treating fibrotic disease” (eFFECTOR Therapeutics, Inc., priority 2014, dated 2018):

System: normal human lung fibroblasts
Assay: Ribosomal profiling: translational efficiency in TGFβ-treated fibroblasts
Format: cell-based
Procedure, shortened: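 Genome-wide RPF and total RNA libraries (ARTseq, RNA-Seq) were made from lysates of cycloheximide-treated, PBS-washed cells. After trimming and human-genome mapping, per-gene coding-region counts were compared between RPF and RNA for translational efficiency. Genes scoring low in either fraction were dropped.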

Substance: TGFβ
- Log2 TE RPS20 (ENSG00000008988, 5 replicates): 1.435
- change in translational profile of DNASE1L1 caused by TGFβ (ENSG00000013563, Control vs. TGFβ): D (D = <1.0 to 1.5)
- Log2 TE VIM (ENSG00000026025, 5 replicates): 1.002
- Log2 TE ARHGAP6 (ENSG00000047648, 5 replicates): −1.082
- Log2 TE KITLG (ENSG00000049130, 5 replicates): −2.027
- change in translational profile of KITLG caused by TGFβ (ENSG00000049130, Control vs. TGFβ): A (A = <−2.5)
- Log2 TE ADAMTS6 (ENSG00000049192, 5 replicates): 2.863
- change in translational profile of ADAMTS6 caused by TGFβ (ENSG00000049192, Control vs. TGFβ): F (F = >2.5)
- Log2 TE LETMD1 (ENSG00000050426, 5 replicates): 1.27
- change in translational profile of LETMD1 caused by TGFβ (ENSG00000050426, Control vs. TGFβ): D (D = <1.0 to 1.5)
- change in translational profile of PLEKHA5 caused by TGFβ (ENSG00000052126, Control vs. TGFβ): C (C = <−1.0 to −1.5)
- Log2 TE LAMA3 (ENSG00000053747, 5 replicates): −1.233
- Log2 TE SYNE2 (ENSG00000054654, 5 replicates): −1.793
- change in translational profile of EIF4B caused by TGFβ (ENSG00000063046, Control vs. TGFβ): E (E = <1.5 to 2.5)
- Log2 TE RPL18 (ENSG00000063177, 5 replicates): 1.612
- change in translational profile of RPL18 caused by TGFβ (ENSG00000063177, Control vs. TGFβ): E (E = <1.5 to 2.5)
- Log2 TE LIMCH1 (ENSG00000064042, 5 replicates): −1.222
- change in translational profile of HIPK2 caused by TGFβ (ENSG00000064393, Control vs. TGFβ): C (C = <−1.0 to −1.5)
- Log2 TE ASPM (ENSG00000066279, 5 replicates): −2.175
- change in translational profile of ASPM caused by TGFβ (ENSG00000066279, Control vs. TGFβ): A (A = <−2.5)
- change in translational profile of RASSF1 caused by TGFβ (ENSG00000068028, Control vs. TGFβ): D (D = <1.0 to 1.5)
- Log2 TE PABPC1 (ENSG00000070756, 5 replicates): 1.207
- change in translational profile of PABPC1 caused by TGFβ (ENSG00000070756, Control vs. TGFβ): D (D = <1.0 to 1.5)
- Log2 TE RPL31 (ENSG00000071082, 5 replicates): 1.6
- change in translational profile of RPL31 caused by TGFβ (ENSG00000071082, Control vs. TGFβ): E (E = <1.5 to 2.5)
- Log2 TE PLD1 (ENSG00000075651, 5 replicates): −1.032
- change in translational profile of PLD1 caused by TGFβ (ENSG00000075651, Control vs. TGFβ): B (B = <−1.5 to −2.5)
- Log2 TE SNRPA (ENSG00000077312, 5 replicates): 1.462
- change in translational profile of EDN1 caused by TGFβ (ENSG00000078401, Control vs. TGFβ): E (E = <1.5 to 2.5)
- Log2 TE CDC14B (ENSG00000081377, 5 replicates): −1.331
- Log2 TE RPS5 (ENSG00000083845, 5 replicates): 1.533
- Log2 TE AURKA (ENSG00000087586, 5 replicates): −1.736
- change in translational profile of AURKA caused by TGFβ (ENSG00000087586, Control vs. TGFβ): B (B = <−1.5 to −2.5)
- Log2 TE EPB41L1 (ENSG00000088367, 5 replicates): 1.018
- change in translational profile of EPB41L1 caused by TGFβ (ENSG00000088367, Control vs. TGFβ): D (D = <1.0 to 1.5)
- Log2 TE ARHGAP28 (ENSG00000088756, 5 replicates): −1.024
- Log2 TE RPL6 (ENSG00000089009, 5 replicates): 1.107
- change in translational profile of RPL6 caused by TGFβ (ENSG00000089009, Control vs. TGFβ): D (D = <1.0 to 1.5)
- change in translational profile of P2RX7 caused by TGFβ (ENSG00000089041, Control vs. TGFβ): B (B = <−1.5 to −2.5)
- change in translational profile of KDM2B caused by TGFβ (ENSG00000089094, Control vs. TGFβ): C (C = <−1.0 to −1.5)
- change in translational profile of RPLP0 caused by TGFβ (ENSG00000089157, Control vs. TGFβ): D (D = <1.0 to 1.5)
- Log2 TE IGBP1 (ENSG00000089289, 5 replicates): 1.266
- change in translational profile of IGBP1 caused by TGFβ (ENSG00000089289, Control vs. TGFβ): E (E = <1.5 to 2.5)
- Log2 TE GRAMD1A (ENSG00000089351, 5 replicates): 1.069
- Log2 TE IRAK3 (ENSG00000090376, 5 replicates): −1.017
- change in translational profile of IRAK3 caused by TGFβ (ENSG00000090376, Control vs. TGFβ): C (C = <−1.0 to −1.5)
- change in translational profile of PABPC4 caused by TGFβ (ENSG00000090621, Control vs. TGFβ): D (D = <1.0 to 1.5)
- Log2 TE FMO2 (ENSG00000094963, 5 replicates): −2.146
- change in translational profile of FMO2 caused by TGFβ (ENSG00000094963, Control vs. TGFβ): A (A = <−2.5)
- Log2 TE ACOT7 (ENSG00000097021, 5 replicates): 1.011
- change in translational profile of ACOT7 caused by TGFβ (ENSG00000097021, Control vs. TGFβ): D (D = <1.0 to 1.5)
- change in translational profile of ATP5D caused by TGFβ (ENSG00000099624, Control vs. TGFβ): D (D = <1.0 to 1.5)
- change in translational profile of LGALS1 caused by TGFβ (ENSG00000100097, Control vs. TGFβ): D (D = <1.0 to 1.5)
- Log2 TE EIF3L (ENSG00000100129, 5 replicates): 1.429
- change in translational profile of EIF3L caused by TGFβ (ENSG00000100129, Control vs. TGFβ): D (D = <1.0 to 1.5)
- Log2 TE RPL3 (ENSG00000100316, 5 replicates): 1.78
- change in translational profile of RPL3 caused by TGFβ (ENSG00000100316, Control vs. TGFβ): E (E = <1.5 to 2.5)
- Log2 TE TIMM9 (ENSG00000100575, 5 replicates): 1.113
